What was measured:
[1] = system: bacteriophage lambda (lambda-lac Z fusion prophage); assay: Biochemical phage induction assay (BIA), induction of bacteriophage lambda (FIG. 1); format: cell-based, E. coli (BR 513)
Experimental: The platinum complexes are tested using the BIA quantitative tube assay for dose-dependent induction of bacteriophage lambda according to a previously published procedure of Sarma, D. et al. Chem. Biol. Interactions, 46: 219-232 (1983), which is incorporated herein by reference. A permeable strain of E. coli (BR 513) containing lambda phage is used to test all samples. Expression time for the assay is 5 hours at 38° C. Fresh dilutions of test samples are made in saline (0.85%) on the day of the experiment. Samples are made at 10×final concentration and dispensed according to assay procedure. Final concentrations are 300 μg/ml, 200 μg/ml, 100 μg/ml, 60 μg/ml, 25 μg/ml, 10 μg/ml and a zero control.
This strain of bacteria contains a chromosomally integrated lambda-lac Z fusion phage under control of the lambda repressor. Treatment with DNA-damaging agents leads to derepression of prophage and synthesis of β-galacto-sidase, product of the lac Z gene. β-galactosidase is detected by reaction with a substrate (O-nitrophenyl-D-galactopyranoside (ONPG)) to give a yellow-colored product. Tubes are incubated at 28° C. (a few minutes to several hours to an A420 ≈0.5-1.0). Color development is stopped by the addition of base (1M Na2 CO3), and the yellow color is measured by absorbance at 420 nm. The exact time required for color development is recorded. Enzyme Units=100 A420 /thr where A420 =absorbance at 420 nm; thr =time required to develop yellow color in hours. One enzyme unit is the approximate value of an uninduced control tube at zero time.
This assay detects a wide variety of compounds which interact with DNA. […] This finding may support the hypothesis that platinum IV complexes are chemically less reactive. However, in vivo there is evidence that platinum IV complexes may be reduced to platinum (II) complexes [Pendyala, L. Proceedings 13th International Cancer Congress, Seatle, Wash., #3034, page 531, (1982)]. […] It is noted that the four isomers are not equal in their ability to induce the prophage.

[2] = system: L1210 and L1210/Cisplatin leukemia; assay: Total number of long-term survivors in Tables 2-4; format: in vivo, CD2Fl mice; details: for Total number of long-term survivors: Tables 2-4 summed
Description: If one summarizes the data in Tables 2-4 by totalling the number of long-term survivors, unexpected differences among the isomers become apparent. For example, the trans l compound produced 30 long-term survivors.

[3] = Solubility of platinum complexes (Table I and preparation examples); format: physicochemical
[4] = Comparative water solubilities of platinum complexes (Table 7)

Row | Compound | Concentration of optimal effect in prophage induction [1] [µg/mL] | Effectiveness in inducing prophage [1] | Prophage induction, enzyme units [1] | Total number of long-term survivors [2] | Solubility in DMF ([3]; DMF) [mg/mL] | Solubility in methanol ([3]; methanol) [mg/mL] | Solubility in methanol-acetone ([3]; methanol-acetone (1:1)) [mg/mL] | Solubility in water ([3]; water) [mg/mL] | Water Solubility ([4]; Table 7) | Water Solubility mg/L / Mouse Optimal Dose (mg/kg) ([4]; ratio of water solubility to mouse optimal dose) | Relative biological activity ([2]; mouse, in vivo)
1 | [Cl][Pt-2]1([Cl])([Cl])([Cl])[NH2+][C@@H]2CCCC[C@H]2[NH2+]1 [trans (l), (1R,2R)-Tetrachloro-trans-1,2-cyclohexanediammine platinum (IV)] | 50 | most effective inducers among the four | about 104 enzyme units | 30 |  |  |  |  |  |  | 
2 | [Cl][Pt]1([Cl])([Cl])([Cl])[NH]C2CCCCC2[NH]1 (stereo not drawn) [trans (d, l), (d,l)-Tetrachloro-trans-1,2-cyclohexanediamine platinum (IV)] |  | intermediate in effectiveness | about 68 enzyme units | 27 |  |  |  |  |  |  | 
3 | [Cl][Pt-2]1([Cl])([Cl])([Cl])[NH2+][C@H]2CCCC[C@@H]2[NH2+]1 [trans (d), (1S, 2S)-Tetrachloro-trans-1,2-cyclohexanediamine platinum (IV)] | 25 | most effective inducers among the four | about 104 enzyme units | 27 |  |  |  |  |  |  | 
4 | Tetrachloro-cis-1,2-cyclohexanediamine platinum (IV) |  | practically inert |  | 13 | 250 | 50 | 200 | < 10 | 2,000 mg/L | 250 mg/L / (mg/kg) | relatively lower biological activity
